The results in this text go back to PMC11788587, “Validating Low‐Dose Iohexol as a Marker for Glomerular Filtration Rate by In Vitro and In Vivo Studies” (Clinical and Translational Science, 2025).

The data set concerns the target T1, hOAT1 (Homo sapiens, UniProt Q4U2R8).
T1 construct: expressed in transfected cells; host or cells: HEK-293 (293) cells, pEBTetD plasmid, doxycycline-induced
T1 sequence (Q4U2R8 1-563): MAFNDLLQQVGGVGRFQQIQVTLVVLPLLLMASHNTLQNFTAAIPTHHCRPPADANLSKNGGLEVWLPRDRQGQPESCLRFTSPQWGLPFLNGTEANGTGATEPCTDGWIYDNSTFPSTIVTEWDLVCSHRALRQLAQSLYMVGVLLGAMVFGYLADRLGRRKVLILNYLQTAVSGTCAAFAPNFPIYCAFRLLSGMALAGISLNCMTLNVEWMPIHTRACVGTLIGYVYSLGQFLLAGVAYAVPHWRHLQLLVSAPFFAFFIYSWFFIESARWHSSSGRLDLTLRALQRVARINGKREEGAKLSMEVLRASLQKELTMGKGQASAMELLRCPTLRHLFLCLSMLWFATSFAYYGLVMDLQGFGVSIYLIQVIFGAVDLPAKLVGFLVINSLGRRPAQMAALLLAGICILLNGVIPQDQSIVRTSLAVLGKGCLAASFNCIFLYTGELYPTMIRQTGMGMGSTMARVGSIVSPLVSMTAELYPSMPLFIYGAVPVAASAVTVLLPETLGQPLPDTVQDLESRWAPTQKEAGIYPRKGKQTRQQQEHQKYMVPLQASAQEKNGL
The data set is described as follows: Substrate assessment: iohexol uptake in 293 cells expressing hOAT1 vs control. The note with it: 10 μM iohexol, median (95% CI). It counts as in vitro ADME. From the text:
We characterized the inhibitory potential of iohexol on major drug transporters recommended by regulatory agencies, which were previously assessed in a clinical transporter phenotyping cocktail study. These transporters include hOAT1, hOAT3, hOCT1, hOCT2, hMATE1, hMATE2K, human organic anion transporter polypeptides (hOATP)1B1, hOATP1B3, and human multidrug resistance protein (hMDR)1. Additionally, we investigated whether iohexol is a substrate for any of the renal transporters among these, including hOAT1/3, hOCT1/2, and hMATE1/2K. Cell‐based uptake assays were used to assess the activities of hOAT1/3, hOCT1/2, hMATE1/2K, and hOATP1B1/1B3. Inside‐out membrane vesicle uptake assays were used to evaluate the activity of hMDR1.
For substrate assessments, iohexol was incubated with stably transfected HEK‐293 cells expressing one of the following transporters: hOAT1, hOAT3, hOCT1, hOCT2, hMATE1, or hMATE2K, as well as with control cells lacking transporter expression. Stably transfected cell lines containing pEBTetD plasmids with wild‐type human transporter cDNAs were generated as previously described. Transporter expression was induced by adding 1 μg/mL doxycycline to the growth medium for at least 20 h. Iohexol would be considered a substrate for these transporters if: (1) the ratio of iohexol uptake in cells expressing the transporter to that in control cells was ≥ 2, and (2) a known inhibitor of the transporter reduced iohexol uptake to ≤ 50% at concentrations ≥ 10 times its inhibition constant or half‐maximal inhibitory concentration.
Uptake assays were performed using stably transfected 293 cells, with or without the expression of one of the following transporters: hOAT1, hOAT3, hOCT1, hOCT2, hMATE1, or hMATE2K, as previously described.^1
For the substrate assessment, cells were incubated with 10 µM iohexol for 10 minutes and 30 minutes for each transporter. Inhibition assays were performed using specific standard substrates for each transporter: 10 µM para-aminohippuric acid (PAH) for hOAT1, 3 µM estrone-3-sulfate (E3S) for hOAT3, 50 µM metformin for hOCT1, 5 µM metformin for hOCT2, and 3 µM 1-methyl-4-phenylpyridinium (MPP+) for hMATE1 and hMATE2K. […]
R version 4.2.1 (R Foundation for Statistical Computing, Vienna, Austria) was used for statistical evaluations and data visualization. The data analysis approach for the in vitro study was detailed by Hsin CH et al..^1 In brief, for transport assays, the initial uptake rate was calculated by normalizing the substrate concentration to both the protein concentration and the incubation time for each dish or well. The transporter-mediated uptake rate (net uptake) was determined by performing an element-wise subtraction of uptake rates from different conditions. […]

Regarding `CC(=O)N(CC(O)CO)c1c(I)c(C(=O)NCC(O)CO)c(I)c(C(=O)NCC(O)CO)c1I` (stereo not shown) [iohexol], the “Differences in intracellular accumulation (expression on minus off)” value is, setting by setting: (10 minutes) -0.39 (-3.4 to 1.1) pmol/mg protein; (30 minutes) 0.98 (-0.62 to 2.1) pmol/mg protein. In addition, the “Uptake ratio (transporter-expressing vs non-expressing cells)” value reads like this: (10 minutes) 0.91 (0.75 to 1.2); (30 minutes) 1.1 (0.95 to 1.3).
